Measured values taken from ChEMBL document CHEMBL5550148, “Systematic alanine and stapling mutational analysis of antimicrobial peptide Chem-KVL” (Bioorg Med Chem Lett, 2024).
In brackets after ≈: the same amount, converted by molar mass. Bridge positions count the residues as written; N and C are the ends. Square brackets hold non-standard residues; d marks the D form. Peptide text beside a SMILES is read from it. S5 = C=CCCC[C@](C)(N)C(=O)O

What was measured:
[1] = Retention time of compound by HPLC analysis; assay type: physicochemical
Acinetobacter baumannii = experiment: Antibacterial activity against Acinetobacter baumannii ATCC 17978 assessed as inhibition of bacterial growth; assay type: functional
Klebsiella pneumoniae = experiment: Antibacterial activity against Klebsiella pneumoniae ATCC 13883 assessed as inhibition of bacterial growth; assay type: functional
Staphylococcus aureus [2] = experiment: Antibacterial activity against Staphylococcus aureus ATCC 25923 assessed as inhibition of bacterial growth; assay type: functional
Escherichia coli [3] = experiment: Antibacterial activity against Escherichia coli ATCC 25922 assessed as inhibition of bacterial growth; assay type: functional
Salmonella typhimurium = experiment: Antibacterial activity against Salmonella typhimurium clinical isolate assessed as inhibition of bacterial growth; assay type: functional, Salmonella enterica subsp. enterica serovar Typhimurium; details: Salmonella enterica
Pseudomonas aeruginosa [4] = experiment: Antibacterial activity against Pseudomonas aeruginosa ATCC 27853 assessed as inhibition of bacterial growth; assay type: functional
[5] = Cytotoxicity against mouse RAW264.7 cells; assay type: toxicity, cell-based
chymotrypsin [6] = molecular target: T1, chymotrypsin (Homo sapiens, UniProt P17538+P40313+Q6GPI1+Q99895); experiment: Proteolytic stability of compound assessed as chymotrypsin (unknown origin) mediated drug degradation by measuring compound remaining after 4 hrs by HPLC analysis; assay type: ADME, protein assay; details: read-out: Stability
chymotrypsin [7] = molecular target: T1, chymotrypsin; experiment: Proteolytic stability of compound assessed as chymotrypsin (unknown origin) mediated drug degradation measured within 4 hrs by HPLC analysis; assay type: ADME, protein assay; details: read-out: Drug degradation
Staphylococcus aureus [8] = experiment: Potency index, ratio of Chem-KVL MIC to test compound MIC for antibacterial activity against Staphylococcus aureus ATCC 25923; assay type: functional
Escherichia coli [9] = experiment: Potency index, ratio of Chem-KVL MIC to test compound MIC for antibacterial activity against Escherichia coli ATCC 25922; assay type: functional
Pseudomonas aeruginosa [10] = experiment: Potency index, ratio of Chem-KVL MIC to test compound MIC for antibacterial activity against Pseudomonas aeruginosa ATCC 27853; assay type: functional

| Compound | Time [1] [min] | MIC (Acinetobacter baumannii) [µg/mL] | MIC (Klebsiella pneumoniae) [µg/mL] | MIC (Staphylococcus aureus [2]) [µg/mL] | MIC (Escherichia coli [3]) [µg/mL] | MIC (Salmonella typhimurium) [µg/mL] | MIC (Pseudomonas aeruginosa [4]) [µg/mL] | IC50 [5] [µg/mL] | remaining at 4 h (chymotrypsin [6]) [%] | metabolised at 4 h (chymotrypsin [7]) [%] | Ratio (Staphylococcus aureus [8]) | Ratio (Escherichia coli [9]) | Ratio (Pseudomonas aeruginosa [10]) |
| --- | --- | --- | --- | --- | --- | --- | --- | --- | --- | --- | --- | --- | --- |
| CC(=O)N[C@@H](CCCCN)C(=O)N[C@H](C(=O)N[C@@H](CC(C)C)C(=O)NCC(=O)N[C@@H](CCCNC(=N)N)C(=O)N[C@@H](CC(C)C)C(=O)N[C@H](C(=O)N[C@@H](CCCCN)C(=O)N[C@H](C(=O)N[C@@]1(C)CCC/C=C\CCC[C@@](C)(C(N)=O)NC(=O)[C@H](CC(C)C)NC(=O)[C@H](CCCNC(=N)N)NC(=O)CNC1=O)C(C)C)C(C)C)C(C)C (Ac-KVLGRLVKV[S5]GRL[S5]-NH2; staple (Z) 10-14) | 28.3 | 32 (≈ 19.6 µM) | 64 (≈ 39.3 µM) | 4 (≈ 2.46 µM) | 32 (≈ 19.6 µM) | 64 (≈ 39.3 µM) | 8 (≈ 4.91 µM) | – | – | – | – | – | – |
| CC(=O)N[C@@H](CCCCN)C(=O)N[C@H](C(=O)N[C@@H](CC(C)C)C(=O)NCC(=O)N[C@@H](CCCNC(=N)N)C(=O)N[C@@H](CC(C)C)C(=O)N[C@H](C(=O)N[C@@H](CCCCN)C(=O)N[C@@]1(C)CCC/C=C\CCC[C@@](C)(C(=O)N[C@H](C(N)=O)C(C)C)NC(=O)[C@H](CCCNC(=N)N)NC(=O)CNC(=O)[C@H](CC(C)C)NC1=O)C(C)C)C(C)C (Ac-KVLGRLVK[S5]LGR[S5]V-NH2; staple (Z) 9-13) | 27.9 | 32 (≈ 19.6 µM) | 64 (≈ 39.3 µM) | 8 (≈ 4.91 µM) | 32 (≈ 19.6 µM) | 64 (≈ 39.3 µM) | 4 (≈ 2.46 µM) | – | – | – | – | – | – |
| CC(=O)N[C@@H](CCCCN)C(=O)N[C@H](C(=O)N[C@@H](CC(C)C)C(=O)NCC(=O)N[C@@H](CCCNC(=N)N)C(=O)N[C@@H](CC(C)C)C(=O)N[C@@]1(C)CCC/C=C\CCC[C@@](C)(C(=O)N[C@@H](CCCNC(=N)N)C(=O)N[C@@H](CC(C)C)C(=O)N[C@H](C(N)=O)C(C)C)NC(=O)[C@H](CC(C)C)NC(=O)[C@H](C(C)C)NC(=O)[C@H](CCCCN)NC1=O)C(C)C (Ac-KVLGRL[S5]KVL[S5]RLV-NH2; staple (Z) 7-11) | 30.6 | > 64 | > 64 | 16 (≈ 9.49 µM) | > 64 | > 64 | 32 (≈ 19 µM) | – | – | – | – | – | – |
| CC(=O)N[C@@H](CCCCN)C(=O)N[C@H](C(=O)N[C@@H](CC(C)C)C(=O)NCC(=O)N[C@@H](CCCNC(=N)N)C(=O)N[C@@]1(C)CCC/C=C\CCC[C@@](C)(C(=O)NCC(=O)N[C@@H](CCCNC(=N)N)C(=O)N[C@@H](CC(C)C)C(=O)N[C@H](C(N)=O)C(C)C)NC(=O)[C@H](C(C)C)NC(=O)[C@H](CCCCN)NC(=O)[C@H](C(C)C)NC1=O)C(C)C (Ac-KVLGR[S5]VKV[S5]GRLV-NH2; staple (Z) 6-10) | 26.5 | 16 (≈ 9.91 µM) | 64 (≈ 39.6 µM) | 2 (≈ 1.24 µM) | 32 (≈ 19.8 µM) | 64 (≈ 39.6 µM) | 4 (≈ 2.48 µM) | 2.95 (≈ 1.83 µM) | > 70 | – | – | – | – |
| CC(=O)N[C@@H](CCCCN)C(=O)N[C@H](C(=O)N[C@@H](CC(C)C)C(=O)NCC(=O)N[C@@]1(C)CCC/C=C\CCC[C@@](C)(C(=O)N[C@@H](CC(C)C)C(=O)NCC(=O)N[C@@H](CCCNC(=N)N)C(=O)N[C@@H](CC(C)C)C(=O)N[C@H](C(=O)O)C(C)C)NC(=O)[C@H](CCCCN)NC(=O)[C@H](C(C)C)NC(=O)[C@H](CC(C)C)NC1=O)C(C)C (Ac-KVLG[S5]LVK[S5]LGRLV-OH; staple (Z) 5-9) | 30.8 | 64 (≈ 40.3 µM) | > 64 | 4 (≈ 2.52 µM) | 64 (≈ 40.3 µM) | > 64 | 4 (≈ 2.52 µM) | – | – | – | – | – | – |
| CC(=O)N[C@@H](CCCCN)C(=O)N[C@H](C(=O)N[C@@]1(C)CCC/C=C\CCC[C@@](C)(C(=O)N[C@@H](CCCCN)C(=O)N[C@H](C(=O)N[C@@H](CC(C)C)C(=O)NCC(=O)N[C@@H](CCCNC(=N)N)C(=O)N[C@@H](CC(C)C)C(=O)N[C@H](C(N)=O)C(C)C)C(C)C)NC(=O)[C@H](CC(C)C)NC(=O)[C@H](CCCNC(=N)N)NC(=O)CNC1=O)C(C)C (Ac-KV[S5]GRL[S5]KVLGRLV-NH2; staple (Z) 3-7) | 27.1 | 64 (≈ 39.3 µM) | > 64 | 4 (≈ 2.46 µM) | 64 (≈ 39.3 µM) | > 64 | 16 (≈ 9.82 µM) | – | – | – | – | – | – |
| CC(=O)N[C@@H](CCCCN)C(=O)N[C@@]1(C)CCC/C=C\CCC[C@@](C)(C(=O)N[C@H](C(=O)N[C@@H](CCCCN)C(=O)N[C@H](C(=O)N[C@@H](CC(C)C)C(=O)NCC(=O)N[C@@H](CCCNC(=N)N)C(=O)N[C@@H](CC(C)C)C(=O)N[C@H](C(N)=O)C(C)C)C(C)C)C(C)C)NC(=O)[C@H](CCCNC(=N)N)NC(=O)CNC(=O)[C@H](CC(C)C)NC1=O (Ac-K[S5]LGR[S5]VKVLGRLV-NH2; staple (Z) 2-6) | 27.3 | 16 (≈ 9.82 µM) | 32 (≈ 19.6 µM) | 8 (≈ 4.91 µM) | 16 (≈ 9.82 µM) | 32 (≈ 19.6 µM) | 4 (≈ 2.46 µM) | 4.11 (≈ 2.52 µM) | – | 100 | – | – | – |
| Ac-AVLGRLVKVLGRLV-NH2 | 27.8 | > 64 | > 64 | 16 | > 64 | > 64 | 64 | – | – | – | – | – | – |
| Ac-KALGRLVKVLGRLV-NH2 | 24.4 | 16 | 32 | 32 | 8 | 16 | 64 | – | – | – | – | – | – |
| Ac-KVAGRLVKVLGRLV-NH2 | 22.4 | > 64 | > 64 | > 64 | 64 | 64 | > 64 | – | – | – | – | – | – |
| Ac-KVLARLVKVLGRLV-NH2 | 26.8 | 32 | 64 | 4 | 32 | 64 | 32 | – | – | – | – | – | – |
| Ac-KVLGALVKVLGRLV-NH2 | 28.4 | 32 | 32 | 8 | 32 | 64 | 16 | – | – | – | – | – | – |
| Ac-KVLGRAVKVLGRLV-NH2 | 22.3 | > 64 | > 64 | > 64 | > 64 | 64 | > 64 | – | – | – | – | – | – |
| Ac-KVLGRLAKVLGRLV-NH2 | 24.5 | 32 | 64 | 32 | 8 | 16 | 64 | – | – | – | – | – | – |
| Ac-KVLGRLVAVLGRLV-NH2 | 27.4 | > 64 | 64 | 16 | 64 | > 64 | 64 | – | – | – | – | – | – |
| Ac-KVLGRLVKALGRLV-NH2 | 25.2 | > 64 | > 64 | > 64 | > 64 | 64 | > 64 | – | – | – | – | – | – |
| Ac-KVLGRLVKVAGRLV-NH2 | 22 | > 64 | > 64 | > 64 | > 64 | 64 | > 64 | – | – | – | – | – | – |
| Ac-KVLGRLVKVLARLV-NH2 | 27.4 | 16 | 16 | 8 | 16 | 32 | 8 | – | – | – | 2 | 2 | 2 |
| Ac-KVLGRLVKVLGALV-NH2 | 27 | > 64 | > 64 | 32 | > 64 | > 64 | 16 | – | – | – | – | – | – |
| Ac-KVLGRLVKVLGRAV-NH2 | 22.7 | 64 | > 64 | > 64 | > 64 | 32 | > 64 | – | – | – | – | – | – |
| Ac-KVLGRLVKVLGRLA-NH2 | 24.2 | 32 | 64 | 64 | 16 | 32 | > 64 | – | – | – | – | – | – |
| Ac-KVLGRLVKVLGRLV-NH2 | 25.1 | 16 | 16 | 16 | 32 | 32 | 32 | 3.7 | – | 100 | – | – | – |
